Results published in patent US11066383B2, “Inhibitors of indoleamine 2,3-dioxygenase and methods of their use” (BRISTOL-MYERS SQUIBB COMPANY, priority 2016, dated 2021).

target: T1, human IDO1 (Homo sapiens, UniProt P14902); experiment: HEK Human IDO-1 inhibition assay (kynurenine production in human IDO1/HEK293 cells); format: cell-based; details: read-out: Bio Activity (μM) IC50
T1 construct: expressed in transfected cells
Experimental: HEK293 cells were transfected with a pCDNA-based mammalian expression vector harboring human IDO1 cDNA (NM 002164.2) by electroporation. They were cultured in medium (DMEM with 10% FBS) containing 1 mg/ml G418 for two weeks. Clones of HEK293 cells that stably expressed human IDO1 protein were selected and expanded for IDO inhibition assay.
The human IDO1/HEK293 cells were seeded at 10,000 cells per 50 μL per well with RPMI/phenol red free media contains 10% FBS in a 384-well black wall clear bottom tissue culture plate (Matrix Technologies LLC) 100 nL of certain concentration of compound was then added to each well using ECHO liquid handling systems. The cells were incubated for 20 hours in 37° C. incubator with 5% CO2.
The compound treatments were stopped by adding trichloroacetic acid (Sigma-Aldrich) to a final concentration at 0.2%. The cell plate was further incubated at 50° C. for 30 minute. The equal volume supernatant (20 μL) and 0.2% (w/v) Ehrlich reagent (4-dimethylaminobenzaldehyde, Sigma-Aldrich) in glacial acetic acid were mixed in a new clear bottom 384-well plate. This plate was then incubated at room temperature for 30 minute. The absorbance at 490 nm was measured on Envision plate reader.
Compound IC50 values were calculated using the counts of 500 nM of a reference standard treatment as one hundred percent inhibition, and counts of no compound but DMSO treatment as zero percent inhibition.

T1 sequence (P14902 whole entry): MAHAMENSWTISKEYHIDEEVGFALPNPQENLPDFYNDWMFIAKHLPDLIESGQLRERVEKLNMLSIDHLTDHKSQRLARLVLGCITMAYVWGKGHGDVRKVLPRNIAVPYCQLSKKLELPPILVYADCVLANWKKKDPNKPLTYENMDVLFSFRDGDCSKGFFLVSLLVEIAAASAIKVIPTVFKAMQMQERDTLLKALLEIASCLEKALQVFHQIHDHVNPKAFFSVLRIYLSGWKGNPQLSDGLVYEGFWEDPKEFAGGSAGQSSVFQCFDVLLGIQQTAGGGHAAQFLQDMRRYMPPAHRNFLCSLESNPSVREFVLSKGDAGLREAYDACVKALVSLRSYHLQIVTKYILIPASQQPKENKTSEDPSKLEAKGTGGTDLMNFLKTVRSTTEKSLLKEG

SMILES	IC50
CCCC(C(=O)NC12CC3CC(CC(C3)C1)C2)N1CCN(c2ccnc3ccc(F)cc23)CC1 (single isomer, unassigned) [Example 19-1]	< 10 µM
Cc1cc(Cl)ccc1CNC(=O)CC1(C)CCN(c2ccnc3ccc(F)cc23)CC1 [Example 1, N-(4-Chloro-2-methylbenzyl)-2-(1-(6-fluoroquinolin-4-yl)-4-methylpiperidin-4-yl)acetamide]	< 0.1 µM
CC1(CC(=O)NC2(c3ccc(Cl)cc3Cl)CC2)CCN(c2ccnc3ccc(F)cc23)CC1 [Example 2, N-(1-(2,4-dichlorophenyl)cyclo-propyl)-2-(1-(6-fluoroquinolin-4-yl)-4-methylpiperidin-4-yl)acetamide]	< 0.1 µM
CC1(CC(=O)NC(C)(C)c2ccc(Cl)cc2)CCN(c2ccnc3ccc(F)cc23)CC1 [Example 3, N-(2-(4-chlorophenyl)propan-2-yl)-2-(1-(6-fluoroquinolin-4-yl)-4-methylpiperidin-4-yl)acetamide]	< 0.1 µM
C[C@H](NC(=O)CC1(C)CCN(c2ccnc3ccc(F)cc23)CC1)c1ccc(Cl)cc1 [Example 4, (S)-N-(1-(4-chlorophenyl)ethyl)-2-(1-(6-fluoroquinolin-4-yl)-4-methylpiperidin-4-yl)acetamide]	< 0.1 µM
CC1(CC(=O)NCc2ccc(Cl)cc2)CCN(c2ccnc3ccc(F)cc23)CC1 [Example 5, N-(4-chlorobenzyl)-2-(1-(6-fluoroquinolin-4-yl)-4-methylpiperidin-4-yl)acetamide]	< 1 µM
CC[C@H](NC(=O)CC1(C)CCN(c2ccnc(C(F)(F)F)c2)CC1)c1ccccc1 [Example 6, (S)-2-(4-Methyl-1-(2-(trifluoromethyl)pyridin-4-yl)piperidin-4-yl)-N-(1-phenylpropyl)acetamide]	< 1 µM
CC1(CC(=O)NC2(c3ccc(Cl)cc3Cl)CC2)CCN(c2ccnc(C(F)(F)F)c2)CC1 [Example 7, N-(1-(2,4-dichlorophenyl)cyclo-propyl)-2-(4-methyl-1-(2-(trifluoro-methyl)pyridin-4-yl)piperidin-4-yl)acetamide]	< 1 µM
CC1(CC(=O)NC(C)(C)c2ccc(Cl)cc2)CCN(c2ccnc(C(F)(F)F)c2)CC1 [Example 8, N-(2-(4-chlorophenyl)propan-2-yl)-2-(4-methyl-1-(2-(trifluoromethyl)-pyridin-4-yl)piperidin-4-yl)acetamide]	< 10 µM
C[C@H](NC(=O)CC1(C)CCN(c2ccnc(C(F)(F)F)c2)CC1)c1ccc(Cl)cc1 [Example 9, (S)-N-(1-(4-chlorophenyl)ethyl)-2-(4-methyl-1-(2-(trifluoromethyl)-pyridin-4-yl)piperidin-4-yl)acetamide]	< 1 µM
C[C@@H](C(=O)NCc1ccccc1Cl)[C@H]1CC[C@@H](c2ccnc3ccc(F)cc32)CC1 [Example 10, (R)—N-(2-chlorobenzyl)-2-((cis)-4-(6-fluoroquinolin-4-yl)cyclohexyl)propanamide]	< 1 µM
C[C@@H](C(=O)NCc1ccc(-c2ccccc2)cc1)[C@H]1CC[C@@H](c2ccnc3ccc(F)cc32)CC1 [Example 12, (R)-N-([1,1′-biphenyl]-4-ylmethyl)-2-((cis)-4-(6-fluoroquinolin-4-yl)cyclohexyl)propanamide]	< 1 µM
C[C@H](NC(=O)[C@H](C)[C@H]1CC[C@@H](c2ccnc3ccc(F)cc32)CC1)c1ccccc1 [Example 13, (R)-2-((cis)-4-(6-fluoroquinolin-4-yl)cyclohexyl)-N-((S)-1-phenylethyl)propanamide]	< 1 µM
C[C@H](NC(=O)[C@H](C)[C@H]1CC[C@@H](c2ccnc3ccc(F)cc32)CC1)c1ccc(Cl)cc1 [Example 14, (R)-N-((S)-1-(4-chlorophenyl)ethyl)-2-((cis)-4-(6-fluoroquinolin-4-yl)cyclohexyl)propanamide]	< 0.1 µM
C[C@@H](C(=O)NC(C)(C)c1ccc(Cl)cc1)[C@H]1CC[C@@H](c2ccnc3ccc(F)cc32)CC1 [Example 15, (R)-N-(2-(4-chlorophenyl)propan-2-yl)-2-((cis)-4-(6-fluoroquinolin-4-yl)cyclohexyl)propanamide]	< 1 µM
C[C@@H](C(=O)NC1(c2ccc(Cl)cc2Cl)CC1)[C@H]1CC[C@@H](c2ccnc3ccc(F)cc32)CC1 [Example 16, (R)-N-(1-(2,4-dichlorophenyl)cyclopropyl)-2-((cis)-4-(6-fluoroquinolin-4-yl)cyclohexyl)propanamide]	< 1 µM
C[C@@H](NC(=O)[C@H](C)[C@H]1CC[C@@H](c2ccnc3ccc(F)cc32)CC1)c1ccc(Cl)cc1 [Example 17, (R)-N-((R)-1-(4-chlorophenyl)ethyl)-2-((1s,4S)-4-(6-fluoroquinolin-4-yl)cyclohexyl)propanamide]	< 10 µM
C[C@@H](C(=O)NCc1ccccc1)[C@H]1CC[C@@H](c2ccnc3ccc(F)cc32)CC1 [Example 18]	< 10 µM
CC1(CC(=O)NC23CC4CC(CC(C4)C2)C3)CCN(c2ccnc3ccc(F)cc23)CC1 [Example 22, N-((3s,5s,7s)-Adamantan-1-yl)-2-(1-(6-fluoroquinolin-4-yl)-4-methylpiperidin-4-yl)acetamide]	< 0.1 µM
CC1(CC(=O)N[C@@]23C[C@@H]4C[C@@H](C[C@@](O)(C4)C2)C3)CCN(c2ccnc3ccc(F)cc23)CC1 [Example 23, 2-(1-(6-Fluoroquinolin-4-yl)-4-methylpiperidin-4-yl)-N-((1r,3s,5R,7S)-3-hydroxyadamantan-1-yl)acetamide]	< 1 µM
